Measurements reported in US10344261B2, “Immunomodulatory conjugates” (ASCEND BIOPHARMACEUTICALS LTD, priority 2011, dated 2019).
Read-outs that look alike come from different tables or passages of the source.

B1: >1000 kDa oxidized mannan-MART-1: recombinant MART-1 protein linked to >1000 kDa oxidized mannan (conjugate, UniProt Q16655 1-118, looked up)
Melanoma antigen recognized …: MPREDAHFIYGYPKKGHGHSYTTAEEAAGIGILTVILGVLLLIGCWYCRRRNGYRALMDKSLHVGTQCALTRRCPQEGFDHRDSKVSLQEKNCEPVVPNAPPAYEKLSAEQSPPPYSP
modifications: conjugated to >1000 kDa oxidized mannan
notes: recombinant MART-1 protein linked to >1000 kDa oxidized mannan

Tests used:
PBMC = assay: Cytokine release assay to measure IL-6 from PBMC (ELISA); assay type: cell-based, human; details: for stimulation of IL-6 release by PBMC (in words): 6 and 24 hours; for EC50: Homo sapiens
Protocol: Fresh blood was collected from healthy volunteers and stored in Heparin Sodium tubes. 15 mL of blood was subsequently transferred to a 50 ml centrifugal tube and gently mixed with equal volume of DPBS. 10 ml Ficoll was slowly underlayed using pipette. The tube was centrifuged for 30 minutes at 800 g at RT without break. The buffy coat (containing PBMC) was aspirated at the interface between serum and Ficoll. The PBMC were washed with sufficient DPBS and centrifuged at 900 g to remove the Ficoll. RPMI-1640 Medium was added to the collected PBMC and the number of PBMC determined by counting. 1 ml of blood typically yields at least 1 million of PBMC.
PBMC were counted and cell densities adjusted. 100 μl of cells were added into the required number of wells such that the cell density for the IL-6 assay was 5,000/well. LD1-oxidized mannan conjugates for screening were serially diluted in DMSO. The LD1 solution was added to each well (final concentration of DMSO in assay was not more than 0.03%). The plates were incubated in a CO2 incubator at 37° C. and supernatants collected at 6 and 24 hours. At each time point of collection, the plates were centrifuged at 900 rpm for 4 minutes and the supernatents transferred to another 96 well plate. These were labelled and stored at −80° C. ELISA kits for IL-6 (Invitrogen) were used for quantitation of cytokine released. The ELISAs were performed as described in the manufacturer's instructions. The absorbances were measured by FlexStation 3. A standard curve for each cytokine was drawn each time for analyzing the data.
The Loxorubine (LOX) derivative, LD1, was synthesised and conjugated to oxidized mannan (LD1-OM) as described above. The LOX derivative, LD1, incorporates a hydrazide linkage for conjugation to aldehyde residues of oxidized mannan and an ester linkage between the linker and the LOX. LD1 oxidized mannan conjugates were used to stimulate PBMCs isolated from human donors and IL-6 cytokine release measured by ELISA.

[1] = test system: MART-1-specific CD8 T cells; assay: Priming and recall of MART-1-specific T cell responses (intracellular IFNγ); assay type: cell-based, human; details: PBMC and MoDC from donors BC28 and BC29, 20 μg/ml
Protocol: MoDC at 2×10^5/ml (for 1:20 MoDC:T cell) in complete AB medium were added to a 24 well plate (1 ml per test condition) followed by protein or >1000 kDa oxidized mannan conjugate (10-20 μg/ml). Four hours later, 4×10^6 CD14 depleted PBMC were added to the wells in 1 ml complete AB medium. After 3 days, 25 U/ml IL-2, 10 ng/ml IL-7 and 10 ng/ml IL-15 was added. The T cells were re-stimulated 7-10 days later with 1×10^5 MoDC loaded with antigen. Twenty four hours following re-stimulation, cultures were supplemented with 25 U/ml IL-2 and again 3-4 days after. T cell cultures were typically analysed after 1 or 2 re-stimulations.
For T cell epitope peptides—Peptide loaded T2 cells (2×10^5/well) were prepared by pulsing with an irrelevant peptide (e.g., CAP-1 10 μg/ml or no peptide) and one with the peptide of interest ([…]) for 1 hour in serum free medium with 1.25 μg/ml β2-microglobulin. T2 cells were added at about a 1:5 ratio (4×10^4/well) in 100 μl to the duplicate T cell wells and incubate for 1 hour at 37° C. 5% CO2. […]
PBMC and MoDC from 2 donors (BC28 and BC29) were used for priming with MART-1 and >1000 kDa oxidized mannan conjugates (20 μg/ml) as described in Example 1. After 1 stimulation, analog and native MART-1 peptide-specific T cell responses were measured using pulsed T2 cells (FIG. 51). […]

Molecule	stimulation of IL-6 release by PBMC (in words) (PBMC; LOX at 500 μM)	Amount IL-6 (pg/ml), 6 hr (PBMC; 6 hr, LOX at 500 μM)	Amount IL-6 (pg/ml), 24 hr (PBMC; 24 hr, LOX at 500 μM) [pg/mL]	EC50 (PBMC; 6 hr, read-out: EC50 of IL-6, 6 hr) [µM]	EC50 (PBMC; 24 hr, read-out: EC50 of IL-6, 24 hr) [µM]	MART-1-specific T cell responses after priming [1]	MART-1-specific T cell responses after priming ([1]; listed as MART-1 >1000 kDa oxidized mannan)
C=CCn1c(=O)n([C@@H]2O[C@H](COC(=O)c3ccc(NN)nc3)[C@@H](O)[C@H]2O)c2nc(N)[nH]c(=O)c21 [LD1, ((2R,3S,4R,5R)-5-(7-allyl-2-amino-6,8-dioxo-1,6,7,8-tetrahydropurin-9-yl)-3,4-dihydroxy-tetrahydrofuran-2-yl)methyl 6-hydrazinylnicotinate]	did not stimulate IL-6	–	–	–	–	–	–
C=CCn1c(=O)n([C@@H]2O[C@H](CO)[C@@H](O)[C@H]2O)c2nc(N)[nH]c(=O)c21 [LOX, 7-allyl-7,8-dihydro-8-oxo-guanosine]	able to stimulate IL-6 release	failed to induce IL-6	10	> 500	> 500	–	–
B1	–	–	–	–	–	efficiently responded to analog or native MART-1 peptides presented by T2 cells	more efficient in priming than unconjugated protein
